Assay results from the supplement of paper PMC10307832.

Compound: COc1cc(-c2nn([C@H]3CC[C@H](N4CCN(C(C)=O)CC4)CC3)c3ncnc(N)c23)ccc1NC(=O)c1cc2ccccc2n1C + COc1cc2c(Oc3ccc(NC(=O)C4(C(=O)Nc5ccc(F)cc5)CC4)cc3F)ccnc2cc1OCCCN1CCOCC1 [Foretinib] (partner 0.25 µM)
Assay: relative viability (nuclei count vs DMSO), 5 days (fraction); higher = more cells survive
Details: first compound 0.0128 µM
How it was run: (§1)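 Each reported value is a median over duplicate plates. It expresses relative viability: treated-well nuclei count divided by vehicle-well nuclei count. Lung cancer cell lines in 1536-well plates were dosed by pin tool a day after seeding, alone with one drug or with a fixed anchor-drug dose plus five library-drug doses (not always all listed) in √10 steps, and nuclei were counted after 5 days.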

Cell Line | relative viability
NCI-H2342 | 0.958
NCI-H1623 | 0.855
NCI-H727 | 0.915
NCI-H1650 | 1.07
EBC-1 | 0.104
NCI-H1703 | 0.297
NCI-H1993 | 0.747
SW 1573 | 0.808
NCI-H838 | 1.01
LCLC-103H | 0.774
NCI-H520 | 0.755
NCI-H2126 | 1.34
EMC-BAC-2 | 1.06
NCI-H2085 | 1.12
Calu-6 | 0.905
HCC-366 | 0.948

Cell Line | relative viability
NCI-H1666 | 0.971
NCI-H596 | 0.884
LK-2 | 1.34
NCI-H2087 | 1.25
SK-MES-1 | 0.894
H3255 | 0.761
COR-L23 | 1.08
COR-L 105 | 1.04
IA-LM | 1.19
A549 | 0.927
SW 900 | 0.813
NCI-H1299 | 1.13
CAL-12T | 1.13
NCI-H2228 | 0.92
NCI-H1563 | 0.913
ABC-1 | 0.967

Same assay, conditions: first compound 0.04048 µM

Cell Line | relative viability
NCI-H2342 | 1.11
NCI-H1623 | 0.696
NCI-H1650 | 1.45
EBC-1 | 0.0846
NCI-H1993 | 0.743
SW 1573 | 0.869
NCI-H838 | 0.989
LCLC-103H | 0.972
NCI-H520 | 0.731
NCI-H2126 | 1
EMC-BAC-2 | 1.05
NCI-H2085 | 0.876
Calu-6 | 0.813
HCC-366 | 0.841
NCI-H1666 | 0.881
NCI-H596 | 0.835
LK-2 | 1.24
SK-MES-1 | 1.14
H3255 | 0.813
COR-L23 | 1.14
COR-L 105 | 1.34
IA-LM | 1.1
A549 | 0.991
SW 900 | 0.91
NCI-H1299 | 1.23
CAL-12T | 1.06
NCI-H2228 | 1.05
NCI-H1563 | 0.997
ABC-1 | 0.953

Same assay, conditions: first compound 0.128 µM

Cell Line | relative viability
NCI-H2342 | 0.914
NCI-H1623 | 0.763
NCI-H727 | 0.831
NCI-H1650 | 1.14
EBC-1 | 0.126
NCI-H1703 | 0.262
NCI-H1993 | 0.784
SW 1573 | 0.887
NCI-H838 | 0.973
LCLC-103H | 0.616
NCI-H520 | 0.65
NCI-H2126 | 1.11
EMC-BAC-2 | 0.968
NCI-H2085 | 0.834
Calu-6 | 0.823
HCC-366 | 0.98

Cell Line | relative viability
NCI-H1666 | 0.957
NCI-H596 | 0.709
LK-2 | 1.05
NCI-H2087 | 1.11
SK-MES-1 | 0.986
H3255 | 0.849
COR-L23 | 0.894
COR-L 105 | 0.994
IA-LM | 1.16
A549 | 0.969
SW 900 | 0.843
NCI-H1299 | 1.14
CAL-12T | 1.31
NCI-H2228 | 0.825
NCI-H1563 | 0.936
ABC-1 | 1.05

Same assay, conditions: first compound 1.28 µM

Cell Line | relative viability
NCI-H2342 | 0.731
NCI-H1623 | 0.595
NCI-H727 | 0.587
NCI-H1650 | 0.911
EBC-1 | 0.112
NCI-H1703 | 0.167
NCI-H1993 | 0.556
SW 1573 | 0.728
NCI-H838 | 0.604
LCLC-103H | 0.65
NCI-H520 | 0.613
NCI-H2126 | 0.983
EMC-BAC-2 | 0.617
NCI-H2085 | 0.691
Calu-6 | 0.659
HCC-366 | 0.757

Cell Line | relative viability
NCI-H1666 | 0.947
NCI-H596 | 0.558
LK-2 | 0.761
NCI-H2087 | 0.948
SK-MES-1 | 1
H3255 | 0.557
COR-L23 | 0.981
COR-L 105 | 0.598
IA-LM | 0.97
A549 | 0.935
SW 900 | 0.66
NCI-H1299 | 1.08
CAL-12T | 1.12
NCI-H2228 | 0.622
NCI-H1563 | 0.685
ABC-1 | 0.881

Compound: COc1cc(-c2nn([C@H]3CC[C@H](N4CCN(C(C)=O)CC4)CC3)c3ncnc(N)c23)ccc1NC(=O)c1cc2ccccc2n1C + CS(=O)(=O)N1CCN(Cc2cc3nc(-c4cccc5[nH]ncc45)nc(N4CCOCC4)c3s2)CC1 [Pictilisib] (partner 1 µM)
Assay: as above
Details: first compound 0.0128 µM
How it was run: as §1

Cell Line | relative viability
NCI-H727 | 0.355
NCI-H1650 | 0.548
EBC-1 | 0.407
NCI-H1703 | 0.235
NCI-H1993 | 0.845
SW 1573 | 0.496
NCI-H838 | 0.403
LCLC-103H | 0.656
NCI-H520 | 0.293
NCI-H2126 | 0.567
EMC-BAC-2 | 0.547
NCI-H2085 | 0.532
Calu-6 | 0.916
HCC-366 | 0.09
NCI-H1666 | 0.521
NCI-H596 | 0.412

Cell Line | relative viability
LK-2 | 0.557
NCI-H2087 | 1.06
SK-MES-1 | 0.343
H3255 | 0.523
COR-L23 | 0.919
COR-L 105 | 0.417
IA-LM | 0.345
HCC-44 | 0.675
A549 | 0.538
NCI-H1299 | 0.681
CAL-12T | 0.392
NCI-H2228 | 0.408
NCI-H1792 | 0.237
NCI-H1563 | 0.682
ABC-1 | 0.805

Same assay, conditions: first compound 0.04048 µM

Cell Line | relative viability
NCI-H1650 | 0.651
EBC-1 | 0.447
NCI-H1703 | 0.26
NCI-H1993 | 0.899
SW 1573 | 0.497
NCI-H838 | 0.397
LCLC-103H | 0.691
NCI-H520 | 0.337
NCI-H2126 | 0.434
EMC-BAC-2 | 0.501
NCI-H2085 | 0.484
Calu-6 | 0.893
HCC-366 | 0.129
NCI-H1666 | 0.367
NCI-H596 | 0.451
LK-2 | 0.543
NCI-H2087 | 0.399
SK-MES-1 | 0.402
H3255 | 0.408
COR-L23 | 0.666
COR-L 105 | 0.427
IA-LM | 0.443
HCC-44 | 0.67
A549 | 0.63
NCI-H1299 | 0.806
CAL-12T | 0.397
NCI-H2228 | 0.275
NCI-H1792 | 0.191
NCI-H1563 | 0.641
ABC-1 | 0.648

Same assay, conditions: first compound 0.128 µM

Cell Line | relative viability
NCI-H727 | 0.401
NCI-H1650 | 0.513
EBC-1 | 0.416
NCI-H1703 | 0.222
NCI-H1993 | 0.826
SW 1573 | 0.497
NCI-H838 | 0.38
LCLC-103H | 0.571
NCI-H520 | 0.247
NCI-H2126 | 0.48
EMC-BAC-2 | 0.504
NCI-H2085 | 0.381
Calu-6 | 0.826
HCC-366 | 0.161
NCI-H1666 | 0.394
NCI-H596 | 0.356

Cell Line | relative viability
LK-2 | 0.55
NCI-H2087 | 0.842
SK-MES-1 | 0.361
H3255 | 0.49
COR-L23 | 0.801
COR-L 105 | 0.321
IA-LM | 0.324
HCC-44 | 0.542
A549 | 0.429
NCI-H1299 | 0.668
CAL-12T | 0.512
NCI-H2228 | 0.337
NCI-H1792 | 0.306
NCI-H1563 | 0.656
ABC-1 | 0.613

Same assay, conditions: first compound 1.28 µM

Cell Line | relative viability
NCI-H727 | 0.301
NCI-H1650 | 0.547
EBC-1 | 0.393
NCI-H1703 | 0.163
NCI-H1993 | 0.775
SW 1573 | 0.362
NCI-H838 | 0.338
LCLC-103H | 0.49
NCI-H520 | 0.216
NCI-H2126 | 0.438
EMC-BAC-2 | 0.494
NCI-H2085 | 0.458
Calu-6 | 0.76
HCC-366 | 0.141
NCI-H1666 | 0.397
NCI-H596 | 0.44

Cell Line | relative viability
LK-2 | 0.375
NCI-H2087 | 0.753
SK-MES-1 | 0.221
H3255 | 0.278
COR-L23 | 0.839
COR-L 105 | 0.243
IA-LM | 0.334
HCC-44 | 0.542
A549 | 0.501
NCI-H1299 | 0.385
CAL-12T | 0.281
NCI-H2228 | 0.375
NCI-H1792 | 0.354
NCI-H1563 | 0.606
ABC-1 | 0.631

Compound: COc1cc(-c2nn([C@H]3CC[C@H](N4CCN(C(C)=O)CC4)CC3)c3ncnc(N)c23)ccc1NC(=O)c1cc2ccccc2n1C + Nc1ncn([C@H]2C[C@H](O)[C@@H](CO)O2)c(=O)n1 [Decitabine] (partner 2 µM)
Assay: as above
Details: first compound 0.0128 µM
How it was run: as §1

Cell Line | relative viability
NCI-H2342 | 0.812
NCI-H727 | 0.925
NCI-H1650 | 0.49
NCI-H1993 | 0.632
SW 1573 | 0.527
NCI-H838 | 0.484
LCLC-103H | 0.832
NCI-H520 | 0.508
NCI-H2126 | 0.612
EMC-BAC-2 | 1
NCI-H2085 | 0.579
HCC-366 | 0.379
NCI-H1666 | 0.71
NCI-H596 | 1.33
LK-2 | 0.339
NCI-H2087 | 0.331
NCI-H1648 | 0.595
SK-MES-1 | 0.384
H3255 | 0.617
COR-L23 | 0.509
COR-L 105 | 0.645
HCC-44 | 1.13
A549 | 0.237
NCI-H522 | 0.665
SW 900 | 0.524
NCI-H1792 | 0.566
ABC-1 | 1.19

Same assay, conditions: first compound 0.04048 µM

Cell Line | relative viability
NCI-H2342 | 0.783
NCI-H1650 | 0.497
NCI-H1993 | 0.575
SW 1573 | 0.446
NCI-H838 | 0.505
LCLC-103H | 0.725
NCI-H520 | 0.502
NCI-H2126 | 0.551
EMC-BAC-2 | 0.941
NCI-H2085 | 0.436
HCC-366 | 0.344
NCI-H1666 | 0.673
NCI-H596 | 1.18
LK-2 | 0.253
NCI-H1648 | 0.447
SK-MES-1 | 0.368
H3255 | 0.504
COR-L23 | 0.451
COR-L 105 | 0.724
HCC-44 | 0.979
A549 | 0.252
NCI-H522 | 0.7
